The target in the assay is ATR kinase (full-length ATR) (Homo sapiens (Human), UniProt Q13535). In words: ATR inhibition assay (radioactive-phosphate incorporation). Conditions: Ki(app), 5 nM full-length ATR, 10 μM ATP, 25° C. The assay is classed as biochemical. Summed up:
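Radiometric 33P incorporation by 5 nM full-length ATR into 800 μM target peptide with 10 μM [γ-33P]ATP, in 50 mM Tris/HCl pH 7.5, 10 mM MgCl2, 1 mM DTT, 7% DMSO, 25° C. Compound pre-incubated 10 minutes; reaction stopped after 24 hours, captured on phosphocellulose. Ki(app) from non-linear regression of initial rates.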

Bounds are passed on as bounds.

Sequence of ATR kinase (full-length ATR) (Q13535 whole entry): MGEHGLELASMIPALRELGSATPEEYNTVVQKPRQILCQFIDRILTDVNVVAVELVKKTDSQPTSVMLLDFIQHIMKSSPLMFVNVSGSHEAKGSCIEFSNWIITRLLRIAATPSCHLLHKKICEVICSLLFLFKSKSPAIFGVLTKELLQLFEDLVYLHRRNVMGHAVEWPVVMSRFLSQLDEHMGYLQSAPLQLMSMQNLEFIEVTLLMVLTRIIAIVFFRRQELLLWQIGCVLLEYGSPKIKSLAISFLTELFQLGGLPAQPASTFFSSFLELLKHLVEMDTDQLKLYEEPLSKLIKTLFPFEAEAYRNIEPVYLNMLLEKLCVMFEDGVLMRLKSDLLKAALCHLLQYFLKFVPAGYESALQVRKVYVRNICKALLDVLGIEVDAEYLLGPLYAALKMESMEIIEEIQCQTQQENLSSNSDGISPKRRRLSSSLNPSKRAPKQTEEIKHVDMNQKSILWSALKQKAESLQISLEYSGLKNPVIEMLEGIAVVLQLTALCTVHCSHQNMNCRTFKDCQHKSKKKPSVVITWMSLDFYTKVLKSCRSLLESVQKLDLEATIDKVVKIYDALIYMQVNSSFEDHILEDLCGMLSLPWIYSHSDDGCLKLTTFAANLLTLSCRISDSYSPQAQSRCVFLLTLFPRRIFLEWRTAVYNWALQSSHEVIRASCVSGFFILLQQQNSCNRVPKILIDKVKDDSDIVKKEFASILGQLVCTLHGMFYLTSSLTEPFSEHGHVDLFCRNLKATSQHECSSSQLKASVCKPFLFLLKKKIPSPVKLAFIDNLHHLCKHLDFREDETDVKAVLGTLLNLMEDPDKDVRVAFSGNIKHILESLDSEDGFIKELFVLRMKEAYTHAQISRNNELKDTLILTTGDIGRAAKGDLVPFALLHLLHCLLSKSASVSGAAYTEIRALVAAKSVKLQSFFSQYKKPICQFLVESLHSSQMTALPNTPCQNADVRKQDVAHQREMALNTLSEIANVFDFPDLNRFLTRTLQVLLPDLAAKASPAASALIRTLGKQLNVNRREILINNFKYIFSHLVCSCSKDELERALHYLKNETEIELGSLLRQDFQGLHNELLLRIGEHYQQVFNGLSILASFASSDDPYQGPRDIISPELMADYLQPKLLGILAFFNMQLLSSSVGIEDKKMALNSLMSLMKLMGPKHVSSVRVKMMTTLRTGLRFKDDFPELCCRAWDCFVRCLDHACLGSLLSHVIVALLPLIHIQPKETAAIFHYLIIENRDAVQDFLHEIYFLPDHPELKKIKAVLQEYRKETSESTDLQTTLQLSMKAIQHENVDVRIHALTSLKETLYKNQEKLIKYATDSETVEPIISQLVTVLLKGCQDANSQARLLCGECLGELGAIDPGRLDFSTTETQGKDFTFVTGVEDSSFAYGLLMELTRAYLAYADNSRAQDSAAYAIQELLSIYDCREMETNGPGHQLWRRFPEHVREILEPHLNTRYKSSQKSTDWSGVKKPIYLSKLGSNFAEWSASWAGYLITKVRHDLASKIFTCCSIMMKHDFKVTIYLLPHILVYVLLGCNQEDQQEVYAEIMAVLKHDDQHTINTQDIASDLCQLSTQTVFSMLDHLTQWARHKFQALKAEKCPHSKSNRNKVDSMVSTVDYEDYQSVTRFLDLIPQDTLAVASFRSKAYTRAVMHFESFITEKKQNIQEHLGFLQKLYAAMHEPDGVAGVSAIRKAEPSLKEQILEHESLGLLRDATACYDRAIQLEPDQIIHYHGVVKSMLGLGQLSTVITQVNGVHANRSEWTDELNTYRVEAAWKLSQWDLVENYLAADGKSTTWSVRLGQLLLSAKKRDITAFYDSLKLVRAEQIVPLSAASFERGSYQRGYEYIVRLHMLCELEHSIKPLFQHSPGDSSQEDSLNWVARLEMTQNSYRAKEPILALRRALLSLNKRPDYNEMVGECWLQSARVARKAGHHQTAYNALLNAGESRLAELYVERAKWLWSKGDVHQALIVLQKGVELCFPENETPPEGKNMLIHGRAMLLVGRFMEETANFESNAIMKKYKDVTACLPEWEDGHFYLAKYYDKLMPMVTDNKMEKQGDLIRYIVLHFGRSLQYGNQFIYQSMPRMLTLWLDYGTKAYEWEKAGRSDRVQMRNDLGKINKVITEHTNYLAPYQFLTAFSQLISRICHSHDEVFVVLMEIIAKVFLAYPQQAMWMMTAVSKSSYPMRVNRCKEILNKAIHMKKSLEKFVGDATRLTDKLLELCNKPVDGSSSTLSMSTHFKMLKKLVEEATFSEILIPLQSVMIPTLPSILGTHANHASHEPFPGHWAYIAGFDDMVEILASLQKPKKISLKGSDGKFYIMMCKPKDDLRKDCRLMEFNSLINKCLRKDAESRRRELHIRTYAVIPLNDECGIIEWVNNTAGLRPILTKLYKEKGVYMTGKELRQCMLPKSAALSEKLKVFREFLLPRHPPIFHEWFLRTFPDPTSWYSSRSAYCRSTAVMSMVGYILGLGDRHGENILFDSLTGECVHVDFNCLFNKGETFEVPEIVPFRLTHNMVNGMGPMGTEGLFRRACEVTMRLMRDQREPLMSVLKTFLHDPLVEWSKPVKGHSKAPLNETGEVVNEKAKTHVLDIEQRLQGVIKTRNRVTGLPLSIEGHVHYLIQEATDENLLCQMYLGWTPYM

`N#CCc1cnc2c(C(=O)Nc3cnccc3OC3CCOCC3)c(N)nn2c1` [I-O-30, 2-amino-6-(cyanomethyl)-N-(4-((tetrahydro-2H-pyran-4-yl)oxy)pyridin-3-yl)pyrazolo[1,5-a]pyrimidine-3-carboxamide]: the Ki is under 10 nM.

For the molecule `CC1CN(C)CCN1c1ccncc1NC(=O)c1c(N)nn2cc(Cl)cnc12` (stereo not shown) [I-N-72, 2-amino-6-chloro-N-(4-(2,4-dimethylpiperazin-1-yl)pyridin-3-yl)pyrazolo[1,5-a]pyrimidine-3-carboxamide], the Ki lay within 10 to 1000 nM.

As for `CN1CCN(C(=O)C2CCN(c3c(F)cncc3NC(=O)c3c(N)nn4cc(F)cnc34)CC2)C2CC21` (stereo not shown) [I-G-65, 2-amino-6-fluoro-N-(5-fluoro-4-(4-(5-methyl-2,5-diazabicyclo[4.1.0]heptane-2-carbonyl)piperidin-1-yl)pyridin-3-yl)pyrazolo[1,5-a]pyrimidine-3-carboxamide], the Ki is 10 to 1000 nM.

Consider `CCN1CCC(C(=O)N2CCN(c3c(F)cncc3NC(=O)c3c(N)nn4cc(F)cnc34)CC2)C1` (stereo not shown) [I-N-207, 2-amino-N-(4-(4-(1-ethylpyrrolidine-3-carbonyl)piperazin-1-yl)-5-fluoropyridin-3-yl)-6-fluoropyrazolo[1,5-a]pyrimidine-3-carboxamide], for which the Ki was in the range of 10 to 1000 nM.

For the molecule `CN1CCN(c2ccncc2NC(=O)c2c(N)nn3cc(F)cnc23)CC12CCOCC2` [I-N-133, 2-amino-6-fluoro-N-(4-(1-methyl-9-oxa-1,4-diazaspiro[5.5]undecan-4-yl)pyridin-3-yl)pyrazolo[1,5-a]pyrimidine-3-carboxamide], the Ki fell in the range of 10 to 1000 nM.

For the molecule `CC1(C)CN(C(=O)C2CCN(c3c(F)cncc3NC(=O)c3c(N)nn4cc(F)cnc34)CC2)CCN1` [I-G-27, 2-amino-N-(4-(4-(3,3-dimethylpiperazine-1-carbonyl)piperidin-1-yl)-5-fluoropyridin-3-yl)-6-fluoropyrazolo[1,5-a]pyrimidine-3-carboxamide], the Ki lay within 10 to 1000 nM.

With `Nc1nn2cc(Cl)cnc2c1C(=O)Nc1cnccc1N1CCC(N2CCOCC2)CC1` [I-N-104, 2-amino-6-chloro-N-(4-(4-morpholinopiperidin-1-yl)pyridin-3-yl)pyrazolo[1,5-a]pyrimidine-3-carboxamide], the Ki fell in the range of 10 to 1000 nM.

Consider `CN(C)C(=O)C1CN(c2ccncc2NC(=O)c2c(N)nn3cc(F)cnc23)CCO1` (stereo not shown) [I-N-234, 4-(3-(2-amino-6-fluoropyrazolo[1,5-a]pyrimidine-3-carboxamido)pyridin-4-yl)-N,N-dimethylmorpholine-2-carboxamide], for which the Ki lay in the range of 10 to 1000 nM.

In the case of `Nc1nn2cc(F)cnc2c1C(=O)Nc1cnccc1O[C@H]1CN2CCC1CC2` [I-O-5, (R)-2-amino-6-fluoro-N-(4-(quinuclidin-3-yloxy)pyridin-3-yl)pyrazolo[1,5-a]pyrimidine-3-carboxamide], the Ki was 10 to 1000 nM.

For `Nc1nn2cc(F)cnc2c1C(=O)Nc1cnccc1N1CCC(CN2CCC(F)(F)C2)CC1` [I-N-197, 2-amino-N-(4-(4-((3,3-difluoropyrrolidin-1-yl)methyl)piperidin-1-yl)pyridin-3-yl)-6-fluoropyrazolo[1,5-a]pyrimidine-3-carboxamide], the Ki fell in the range of 10 to 1000 nM.

Turning to `CN1CCOCC1C(=O)N1CCN(c2c(F)cncc2NC(=O)c2c(N)nn3cc(F)cnc23)CC1` (stereo not shown) [I-N-227, 2-amino-6-fluoro-N-(5-fluoro-4-(4-(4-methylmorpholine-3-carbonyl)piperazin-1-yl)pyridin-3-yl)pyrazolo[1,5-a]pyrimidine-3-carboxamide], the Ki was in the range of 10 to 1000 nM.

As to `Nc1nn2cc(F)cnc2c1C(=O)Nc1cncc(F)c1N1CCC(C(=O)N2CCC2)CC1` [I-G-8, 2-amino-N-(4-(4-(azetidine-1-carbonyl)piperidin-1-yl)-5-fluoropyridin-3-yl)-6-fluoropyrazolo[1,5-a]pyrimidine-3-carboxamide], the Ki fell in the range of 10 to 1000 nM.

With `Cn1nccc1-c1ccncc1NC(=O)c1c(N)nn2cc(F)cnc12` [I-C-57, 2-amino-6-fluoro-N-(4-(1-methyl-1H-pyrazol-5-yl)pyridin-3-yl)pyrazolo[1,5-a]pyrimidine-3-carboxamide], the Ki lay within 10 to 1000 nM.

The record behind these values is patent US10392391B2 (Vertex Pharmaceuticals Incorporated, priority 2012, dated 2019).
